How the values were obtained:
Tyk2/Stat3 = assay: GM-CSF-induced Tyk2/Stat3 tyrosine phosphorylation in SHP-1-deficient cells; type: cell-based
NB4 cells = assay: NB4 cell growth (MTT), cell cycle and Annexin V; type: cell-based, human
Method: The NB4 cell line (Lanotte et al., Blood 77, 1080 (1991)) was a gift from Dr. Dan Lindner of the Cleveland Clinic Foundation. […] and U937 cell lines were purchased from American Type Culture Collection (Rockville, Md.). These human […] cell lines were maintained in RPMI 1640 medium supplemented with 10% fetal calf serum (FCS). For cell proliferation assays, cells were cultured at 37° C. in 10% FCS medium containing various amounts of sodium stibogluconate for 6 days. The cell numbers in the cultures were determined by an MTT assay as described previously in Mosmann, J. Imunol. Methods 65, 55 (1983).
The cell cycle was analyzed by flow cytometry after 3 days of culture of NB4 cells in the absence or presence of sodium stibogluconate (250 μg/ml) or ATRA (1 μM). Briefly, the cells were fixed in cold ethanol and incubated for 30 minutes at 4° C. in the dark with a solution of […] propidium iodide, 1 mg/ml RNase and 0.1% NP-40. Analysis was performed immediately after staining using the CELLFIT program (Becton Dickinson, Mountain View, Calif.).
Annexin V staining of exposed membrane phospholipid phosphatidylserine (PS) was done using the Annexin V assay kit (Pharmingen, San Diego, Calif.). Briefly, NB4 cells were cultured in the 10% FCS RPMI 1640 medium in the absence or presence of sodium stibogluconate (250 μg/ml) or ATRA (1 μM) for 3 days. Cells were then washed in PBS twice and stained in binding buffer (10 mM Hepes, pH 7.4; 140 mM NaCl; 2.5 mM CaCl2) containing Annexin V-FITC and propidium iodide for 15 min. The reaction was stopped by adding 10 volumes of binding buffer and analyzed by FACS (Becton Dickinson Facsvantage).

U266 cells = assay: Cell proliferation assay (MTT), U266 multiple myeloma cells; type: cell-based, human; settings: day 6
Method: For cell proliferation assays, cells were grown in 10% FCS culture medium containing various amounts of IFNs and/or sodium stibogluconate in 96 well plates and cultured at 37° C. for 3 or 6 days as indicated. The numbers of viable cells in proliferation assays were determined by MTT assays as described in Phatak et al., J. Immunol. 167, 3391 (2001).

Flag-PRL-3 = molecular target: T1, Flag-PRL-3 (Homo sapiens, UniProt O75365); assay: Immunocomplex PTPase assay, Flag-PRL-3 NIH3T3 transfectants; type: cell-based; settings: cells treated 5 min
T1 construct: expressed in transfected cells
T1 sequence (O75365 whole entry): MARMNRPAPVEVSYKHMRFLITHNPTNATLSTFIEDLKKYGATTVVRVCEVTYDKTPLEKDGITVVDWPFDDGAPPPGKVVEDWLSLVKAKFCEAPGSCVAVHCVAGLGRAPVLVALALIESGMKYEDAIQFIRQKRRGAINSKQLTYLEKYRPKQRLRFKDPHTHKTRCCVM
Method: Immunocomplex PTPase assays were performed to assess the effects of sodium stibogluconate on intracellular PTPases. Cells were untreated or treated with sodium stibogluconate for 5 minutes, washed with fresh medium and then lysed in cold lysis buffer (50 mM Tris, pH 7.4; 150 mM NaCl; 1% NP40; 2 mM PMSF; 20 ,g/ml of Aprotinin). The lysates were incubated with an anti-Flag antibody in immunoprecipitation assays. The immunocomplexes were collected with protein G sepharose beads (Pharmacia) and washed in cold lysis buffer for 4 times. […] 100 μL of malachite green solution (UBI) was added to each reaction prior to measurement of OD660 to quantify the amounts of free phosphate cleaved by the PTPases from the peptide substrate (Pathak et al., J. Imumol. 167, 3391 (2001)). The remaining 10% contents of individual samples were analyzed by SDS-PAGE/Western blotting to quantify the relative amounts of the phosphatase proteins. […]
The effects of sodium stibogluconate on intracellular PTPases were assessed using NIH3T3 or WM9 transfectants. […]

HEY cells = assay: Cell growth assay (MTT), HEY ovarian cancer cells; type: cell-based, human; settings: 100 μg/ml, day 6
Method: NIH3T3 (Yi, et al., Blood 85, 87 (1995)), WM9 (Forsberg, et al., Proc. Nat. Acad Sci. USA 90, 393 (1993)), DU145 (Mickey, et al., Cancer Res. 37, 4049 (1977)), LoVo (Drewinko, et al., Cancer Res. 36, 467 (1976)), HEY (Buick, et al., Cancer Res. 45, 3668 (1985)), U251 (Yoshida, et al., Cancer 50, 410 (1982)), A549 (Giard, et al., J. Natl. Cancer Inst. 51, 1417 (1973)) and SK-N-SH (Helson, et al., Cancer Res. 35, 2594 (1975)) cell lines have been described and were cultured in RPMI 1640 supplemented with 10% fetal calf serum (FCS). For measurement of sodium stibogluconate effects on cell growth in vitro, cells were cultured in the absence (−) or presence (+) of various amounts of sodium stibogluconate for 6 days with viable cells quantified by MTT assays (Mosmann, J. Imunol. Methods 65, 55 (1983)). Percentages of growth inhibition by sodium stibogluconate were calculated (+/−×%).

For `O.O.O.O.O.O.O.O.O.O=C([O-])[C@@H]1[O][Sb]2([O-])([O][Sb]34([OH])[O][C@H]([C@H](O)CO)[C@H]([O]3)[C@H](C(=O)[O-])[O]4)[O][C@H]([C@H](O)CO)[C@@H]1[O]2.[Na+].[Na+].[Na+]` [sodium stibogluconate], the “GM-CSF-induced Tyk2/Stat3 tyrosine phosphorylation” value (Tyk2/Stat3) was “augmented”, the “Annexin V staining of NB4 cells” value (NB4 cells; 250 μg/ml, 6 days) was “stained positive by Annexin V” and the “proliferation of NB4 cells” value (NB4 cells; 12.5-400 μg/ml, MTT) was “markedly inhibited”. For the same compound, the “cell cycle of NB4 cells” value (NB4 cells; 3 days, sodium stibogluconate 250 μg/ml, ATRA 1 μM) was “significant increase of cells at S phase”, the “IFN-alpha-induced growth inhibition of U266 cells in presence of drug” value (U266 cells) was “augmentation of IFN-alpha-induced cell growth inhibition” and the “growth inhibition of U266 cells by the drug by itself” value (U266 cells) was “substantial growth inhibition activity”. The “PTPase activity of anti-Flag immunocomplexes, Flag-PRL-3” value (Flag-PRL-3) was “lack of PTPase activity” and the “cell killing, HEY” value (HEY cells) was “near-complete cell killing”.
